{
  "source": "patent US8410168B2",
  "about": "“Methods and compositions for treating ophthalmic conditions with retinyl derivatives” (Acucela, Inc., priority 2004, dated 2013)",
  "key": {"[1]": {"system": "ABCA4−/− mice", "experiment": "HPR drug holiday after 28 days of treatment", "assay_type": "in vivo, mouse", "conditions": "28-day drug holiday", "method": "HPR (10 mg/kg in DMSO) was administered to ABCA4−/− mice daily for a period of 28 days. Control ABCA4−/− mice received only DMSO for the same period. […] Importantly, the observed reductions in lipofuscin autofluorescence persist long after cessation of HPR therapy. HPR (10 mg/kg), or DMSO, administration was discontinued following 28 days of treatment and re-evaluated A2E and precursor levels after 2 weeks and after 4 weeks.\nWe examined eyecup extracts by HPLC and employed detection by absorbance and fluorimetry. Identity of the indicated peaks was confirmed by on-line spectral analysis and by co-elution with authentic standards. […] Further, the A2E and precursor (A2PE-H2 and A2PE) levels after a […] or 28-day drug holiday remained at or near the levels immediately following 28 days of treatment (i.e., ca. 50% reduction relative to control), although after the 28-day drug holiday, the amount of A2E and precursor (A2PE-H2 and A2PE) had increased by a few percentage points relative to the 12-day drug holiday levels. […] It is clear that peak fluorescence tracks with the abundance of A2E, A2PE and A2PE-H2.\nThis effect cannot be attributed to long-term reductions in serum retinol as serum retinol had returned to baseline 48 hours following the last HPR dose. […] Furthermore, HPR reduces serum retinol levels, which leads to a reduction in the level of retinol in the eyes of treated animals. Once the level of retinol has been reduced in the eye, there is a time lag in the subsequent increase in retinol levels in the eye. Alone or in combination, the production of A2E, A2PE and A2PE-H2 in the eye remains low despite the absence of HPR in the serum or the eye."}, "[2]": {"biological_target": "TTR binding to RBP (Homo sapiens, UniProt P02753)", "experiment": "Size exclusion study of TTR binding to RBP", "conditions": "10 μM RBP, 50 μM MPR, 10 μM TTR", "method": "Apo-RBP at 10 μM was incubated with 50 μM of MPR in PBS at room temperature for 1 hour. 10 μM of TTR was then added to the solution, and the mixture was incubated for another hour at room temperature. […] of the sample mixtures with and without TTR addition were analyzed by BioRad Bio-Sil SEC 125 Gel Filtration Column (300×7.8 mm). In control experiments, atROL-RBP and atROL-RBP-TTR mixture were analyzed in the same manner."}, "[3]": {"biological_target": "RBP (Homo sapiens, UniProt P02753)", "experiment": "Fluorescence quenching study of MPR binding to RBP", "method": "Apo-RBP at 0.5 μM was incubated with 0, 0.25, 0.5, 1 and 2 μM of MPR in PBS at room temperature for 1 hour, respectively. As controls, the same concentration of Apo-RBP was also incubated with 1 μM of HPR or 1 μM of atROL. All mixtures contained 0.2% Ethanol (v/v). The emission spectra were measured between 290 nm to 550 nm with excitation wavelength at 280 nm and 3 nm bandpass."}, "[4]": {"biological_target": "T1, CRALBP (Homo sapiens, UniProt P12271)", "T1 construct": "made in house", "T1 sequence (P12271 whole entry, species assumed)": "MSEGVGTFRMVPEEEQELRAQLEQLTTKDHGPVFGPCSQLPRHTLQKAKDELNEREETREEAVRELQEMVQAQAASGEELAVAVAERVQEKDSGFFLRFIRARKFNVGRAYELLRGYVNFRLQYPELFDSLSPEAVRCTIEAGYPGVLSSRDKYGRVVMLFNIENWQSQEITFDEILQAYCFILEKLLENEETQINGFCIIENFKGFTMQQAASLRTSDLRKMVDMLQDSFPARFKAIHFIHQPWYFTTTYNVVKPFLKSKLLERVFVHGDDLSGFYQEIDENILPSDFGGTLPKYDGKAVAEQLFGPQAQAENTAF", "experiment": "Fluorescence quenching study of binding to CRALBP", "method": "Apo-CRALBP at 0.5 μM was incubated with 1 μM of 11-cis Retinal (11cRAL), all-trans retinal (atRAL) or N-4-hydroxyphenyl retinamide (HPR) in PBS at room temperature for 1 hour. As a control, same volume of DMSO was added to the Apo-CRABLP solution. The emission spectra were measured between 290 nm to 500 nm with excitation wavelength at 280 nm and 2 nm bandpass (See FIG. 7).\nQuenching of CRALBP protein fluorescence with 11-cis retinal (11cRAL). The fluorescence emission of recombinant apo-CRALBP (0.5 μM) was measured using 280 nm excitation (“no 11cRAL”).\nQuenching of CRALBP protein fluorescence with HPR. The data shown were obtained using an experimental design identical to that described above. The fluorescence emission of recombinant apo-CRALBP was measured using 280 nm excitation (“no HPR”).\nWe performed an analysis of the dissociation constant (KD) for 11cRAL and HPR binding to apo-CRALBP (see FIG. 15). […] This calculation is based upon the ligand concentration necessary to fully quench the protein fluorescence. The data reveal that both 11cRAL and HPR quench apo-CRALBP fluorescence maximally at ˜1.5 μM. Thus, although apo-CRALBP is described as an 11 cis-specific retinoid binding protein, it appears to bind HPR as well."}, "[5]": {"biological_target": "T1, CRALBP", "experiment": "Size exclusion chromatography study of binding to CRALBP", "conditions": "4 μM apo-CRALBP, 8 μM ligand", "method": "Apo-CRALBP at 4 μM was incubated with 8 μM of 11cRAL, atRAL or HPR in PBS at room temperature for 1 hour. In control experiment, equivalent volume of DMSO was added to the CRALBP solution. 50 μl of each sample mixture was analyzed by BioRad Bio-Sil SEC125 Gel Filtration Column (300×7.8 mm)."}, "[6]": {"biological_target": "T2, apo-CRALBP (Homo sapiens, UniProt P12271)", "T2 construct": "made in house", "T2 sequence (P12271 whole entry, species assumed)": "as above", "experiment": "Ni+ affinity column and spectroscopic analysis of binding to CRALBP", "conditions": "10 μM apo-CRALBP, 20 μM ligand", "method": "In order to confirm data obtained during fluorescence analysis of HPR binding to CRALBP, a second analysis was performed using affinity chromatography and spectroscopic analysis. The recombinant apo-CRALBP was constructed with a histidine tag which is utilized to purify the protein on a Ni+ affinity column following expression cloning. Here, we utilized this feature of apo-CRALBP to specifically “trap” the protein and any protein-ligand species for spectroscopic analysis. Two binding mixtures were prepared containing apo-CRALBP (10 μM) and either 11cRAL (20 μM) or HPR (20 μM). In control experiments for the analysis of non-specific ligand binding onto the affinity matrix, we prepared two additional mixtures containing only 11cRAL (20 μM) or HPR (20 μM) in binding buffer. The binding mixtures were passed through separate Ni+ affinity columns and the columns were washed extensively to elute unbound protein and ligand. Following the addition of elution buffer, the eluted fractions were analyzed by spectroscopy. […] Instead, two absorption maxima are seen: one at 280 nm and a second at 360 nm, which is attributable to the absorption of HPR (see FIG. 14)."}},
  "note": "pKd: −log10 of the molar value.",
  "data": [
    {"smiles": "COc1ccc(NC(=O)\\C=C(C)/C=C/C=C(C)\\C=C\\C2=C(C)CCCC2(C)C)cc1", "note": "(stereo in doubt) [MPR, N-(4-methoxyphenyl)retinamide]", "values": [
      {"measurement": "detection in the eyes after drug holiday", "setting": "[1]", "result": "unable to detect"},
      {"measurement": "binding of ligand-RBP to TTR", "setting": "[2]", "result": "did not bind to TTR"},
      {"measurement": "quenching of RBP fluorescence", "setting": "[3]; 0.5 μM apo-RBP, 0-2 μM MPR", "result": "concentration-dependent quenching"},
      {"measurement": "concentration at which quenching of RBP fluorescence saturated", "setting": "[3]; 0.5 μM of RBP", "result": 1, "unit": "µM"},
      {"measurement": "degree of RBP fluorescence quenching compared with other ligands", "setting": "[3]; 1 μM controls", "result": "smaller than those by atROL and HPR"}
    ]},
    {"smiles": "CC1=C(/C=C/C(C)=C/C=C/C(C)=C/C=O)C(C)(C)CCC1", "note": "[11cRAL, 11-cis retinal]", "values": [
      {"measurement": "concentration of maximal quenching of apo-CRALBP fluorescence", "setting": "[4]", "result": "~1.5", "unit": "µM"},
      {"measurement": "quenching of CRALBP fluorescence emission", "setting": "[4]; 0.5 μM apo-CRALBP, 1 μM ligand, 1 hour, vs DMSO", "result": "highest degree of quenching"},
      {"measurement": "concentration dependence of CRALBP protein fluorescence quenching", "setting": "[4]; 0.5 μM recombinant apo-CRALBP, 280 nm excitation", "result": "concentration dependent manner"},
      {"measurement": "pKd", "setting": "[4]; transformation of fluorescence quenching data, read-out: dissociation constant (KD) for binding to apo-CRALBP", "result": "~7.52"},
      {"measurement": "ligand bound to CRALBP (monomer elution peak absorbance)", "setting": "[5]", "result": "a majority of the CRALBP is bound with ligand"},
      {"measurement": "binding to apo-CRALBP by absorption spectra of eluted fraction", "setting": "[6]", "result": "bound to CRALBP"}
    ]},
    {"smiles": "CC1=C(/C=C/C(C)=C/C=C/C(C)=C/C=O)C(C)(C)CCC1", "note": "[atRAL, all-trans retinal]", "values": [
      {"measurement": "ligand bound to CRALBP (monomer elution peak absorbance)", "setting": "[5]", "result": "Less than half of the atRAL is bound to CRALBP"}
    ]},
    {"smiles": "CC1=C(/C=C/C(C)=C/C=C/C(C)=C/CO)C(C)(C)CCC1", "note": "[atROL, all-trans retinol]", "values": [
      {"measurement": "binding of ligand-RBP to TTR", "setting": "[2]", "result": "binds to TTR"}
    ]}
  ]
}
